{
  "source": "the NIST ThermoML archive (doi:10.1016/j.jct.2016.10.039)",
  "assay": "mn = molality of the nth substance listed, in mol/kg",
  "settings": "298.15 K, 85 kPa, Liquid, Alternating current cell with electrodes",
  "note": "Numbers after ± are expanded uncertainties.",
  "data": [
    {"molecule": "CCCCCCCCCCCCn1cc[n+](C)c1.[Br-]", "note": "[1-dodecyl-3-methylimidazolium bromide] + O", "values": [
      {"measurement": "electrical conductivity", "setting": "m1 = 0.00123", "result": "0.0086 ± 0.0007", "unit": "S/m"},
      {"measurement": "electrical conductivity", "setting": "m1 = 0.00244", "result": "0.0169 ± 0.0014", "unit": "S/m"},
      {"measurement": "electrical conductivity", "setting": "m1 = 0.00361", "result": "0.0251 ± 0.0021", "unit": "S/m"},
      {"measurement": "electrical conductivity", "setting": "m1 = 0.00476", "result": "0.0331 ± 0.0028", "unit": "S/m"},
      {"measurement": "electrical conductivity", "setting": "m1 = 0.00588", "result": "0.0411 ± 0.0034", "unit": "S/m"},
      {"measurement": "electrical conductivity", "setting": "m1 = 0.00698", "result": "0.0489 ± 0.0041", "unit": "S/m"},
      {"measurement": "electrical conductivity", "setting": "m1 = 0.00805", "result": "0.0567 ± 0.0049", "unit": "S/m"},
      {"measurement": "electrical conductivity", "setting": "m1 = 0.00909", "result": "0.0644 ± 0.0049", "unit": "S/m"},
      {"measurement": "electrical conductivity", "setting": "m1 = 0.01011", "result": "0.0702 ± 0.0039", "unit": "S/m"},
      {"measurement": "electrical conductivity", "setting": "m1 = 0.01111", "result": "0.0736 ± 0.0031", "unit": "S/m"},
      {"measurement": "electrical conductivity", "setting": "m1 = 0.01209", "result": "0.0764 ± 0.003", "unit": "S/m"},
      {"measurement": "electrical conductivity", "setting": "m1 = 0.01304", "result": "0.0788 ± 0.0032", "unit": "S/m"},
      {"measurement": "electrical conductivity", "setting": "m1 = 0.01398", "result": "0.0814 ± 0.0033", "unit": "S/m"},
      {"measurement": "electrical conductivity", "setting": "m1 = 0.01489", "result": "0.0836 ± 0.0032", "unit": "S/m"},
      {"measurement": "electrical conductivity", "setting": "m1 = 0.01579", "result": "0.0856 ± 0.0034", "unit": "S/m"},
      {"measurement": "electrical conductivity", "setting": "m1 = 0.01667", "result": "0.0877 ± 0.0037", "unit": "S/m"},
      {"measurement": "electrical conductivity", "setting": "m1 = 0.01753", "result": "0.0898 ± 0.0038", "unit": "S/m"},
      {"measurement": "electrical conductivity", "setting": "m1 = 0.01837", "result": "0.0918 ± 0.004", "unit": "S/m"},
      {"measurement": "electrical conductivity", "setting": "m1 = 0.01919", "result": "0.0938 ± 0.0041", "unit": "S/m"},
      {"measurement": "electrical conductivity", "setting": "m1 = 0.02", "result": "0.0957 ± 0.0043", "unit": "S/m"},
      {"measurement": "electrical conductivity", "setting": "m1 = 0.02079", "result": "0.0977 ± 0.0047", "unit": "S/m"},
      {"measurement": "electrical conductivity", "setting": "m1 = 0.02157", "result": "0.0997 ± 0.002", "unit": "S/m"}
    ]},
    {"molecule": "CCCCCCCCCCCC[N+](C)(C)C.[Br-]", "note": "[dodecyltrimethylammonium bromide] + O", "values": [
      {"measurement": "electrical conductivity", "setting": "m1 = 0.00185", "result": "0.0125 ± 0.001", "unit": "S/m"},
      {"measurement": "electrical conductivity", "setting": "m1 = 0.00366", "result": "0.0246 ± 0.002", "unit": "S/m"},
      {"measurement": "electrical conductivity", "setting": "m1 = 0.00542", "result": "0.0367 ± 0.0031", "unit": "S/m"},
      {"measurement": "electrical conductivity", "setting": "m1 = 0.00714", "result": "0.0487 ± 0.0042", "unit": "S/m"},
      {"measurement": "electrical conductivity", "setting": "m1 = 0.00882", "result": "0.0609 ± 0.0053", "unit": "S/m"},
      {"measurement": "electrical conductivity", "setting": "m1 = 0.01047", "result": "0.0731 ± 0.0065", "unit": "S/m"},
      {"measurement": "electrical conductivity", "setting": "m1 = 0.01207", "result": "0.0856 ± 0.0077", "unit": "S/m"},
      {"measurement": "electrical conductivity", "setting": "m1 = 0.01364", "result": "0.0976 ± 0.0082", "unit": "S/m"},
      {"measurement": "electrical conductivity", "setting": "m1 = 0.01517", "result": "0.108 ± 0.0076", "unit": "S/m"},
      {"measurement": "electrical conductivity", "setting": "m1 = 0.01667", "result": "0.116 ± 0.0061", "unit": "S/m"},
      {"measurement": "electrical conductivity", "setting": "m1 = 0.01813", "result": "0.121 ± 0.005", "unit": "S/m"},
      {"measurement": "electrical conductivity", "setting": "m1 = 0.01957", "result": "0.125 ± 0.0049", "unit": "S/m"},
      {"measurement": "electrical conductivity", "setting": "m1 = 0.02097", "result": "0.128 ± 0.005", "unit": "S/m"},
      {"measurement": "electrical conductivity", "setting": "m1 = 0.02234", "result": "0.132 ± 0.0051", "unit": "S/m"},
      {"measurement": "electrical conductivity", "setting": "m1 = 0.02368", "result": "0.135 ± 0.0054", "unit": "S/m"},
      {"measurement": "electrical conductivity", "setting": "m1 = 0.025", "result": "0.138 ± 0.0056", "unit": "S/m"},
      {"measurement": "electrical conductivity", "setting": "m1 = 0.02629", "result": "0.141 ± 0.006", "unit": "S/m"},
      {"measurement": "electrical conductivity", "setting": "m1 = 0.02755", "result": "0.145 ± 0.0064", "unit": "S/m"},
      {"measurement": "electrical conductivity", "setting": "m1 = 0.02879", "result": "0.148 ± 0.0066", "unit": "S/m"},
      {"measurement": "electrical conductivity", "setting": "m1 = 0.03", "result": "0.151 ± 0.0068", "unit": "S/m"},
      {"measurement": "electrical conductivity", "setting": "m1 = 0.03119", "result": "0.154 ± 0.0071", "unit": "S/m"},
      {"measurement": "electrical conductivity", "setting": "m1 = 0.03235", "result": "0.157 ± 0.0073", "unit": "S/m"},
      {"measurement": "electrical conductivity", "setting": "m1 = 0.0335", "result": "0.16 ± 0.0032", "unit": "S/m"}
    ]},
    {"molecule": "O", "note": "[water] + CCCCCCCCCCCC[N+](C)(C)C.[Br-]", "values": [
      {"measurement": "electrical conductivity", "setting": "m2 = 0", "result": "0.00021 ± 1e-05", "unit": "S/m"}
    ]},
    {"molecule": "O", "note": "[water] + CCCCCCCCCCCCn1cc[n+](C)c1.[Br-]", "values": [
      {"measurement": "electrical conductivity", "setting": "m2 = 0", "result": "0.00024 ± 1e-05", "unit": "S/m"}
    ]}
  ]
}
